US11026956B2, “Cancer drug and uses” (Health Clinics Limited, priority 2013, dated 2021)

Legend:
MCF-7 cells = test: Percentage of survival of MCF-7 cells by LDH content; format: cell-based; settings: 72 hours; for percent of survival of MCF-7 cells, administered more than once: re-dosing at 24 and 48 h; for percent of survival of MCF-7 cells, administered more than once / effect on percent of survival of MCF-7 cells, dosed singly: without Artesunate; for effect on percent of survival of MCF-7 cells, dosed singly: single dose; for survival of MCF-7 cells, therapeutic administered individually: dosed once or multiple times (re-dosing at 24 and 48 h)
Protocol: To assess the effect of Artesunate in combination with several other therapeutics, MCF-7 cells were treated with different concentrations of these therapeutic compounds either once or through repeated dosing. The percentage of survival was calculated based on the LDH contents of cells. 1. 100 ul of cells suspension […]) were added to each well (3000 cells/well), with a total of 5 plates were seeded. […] [table] The appropriate volume of 100% Ethanol was added to Artesunate to obtain a concentration of 10 mg/ml. This was further diluted in 100% Ethanol to 1 mg/ml (1:10). 4 ug/ml was obtained by diluting 1 mg/ml (1:250) in complete medium. Further double decreasing dilutions were carried out in complete medium containing 0.4% Ethanol. […] This was further diluted in complete medium to 16 mM (1:6.25). Further double decreasing dilutions were carried out in complete medium. 2 mg of MMC were resuspended in 4 ml of sterile water to obtain a stock at 0.5 mg/ml. A second dilution of MMC was carried out by diluting 0.5 mg/ml in complete medium to 0.1 mg/ml (1:5). 4. Once the treatments were ready, 50 ul/well of Artesunate was added to the plates. […] 5. 50 ul of complete medium at 0.4% Ethanol and 50 ul of just complete medium were added to the corresponding control wells already containing either 100 ul of cells (positive control) or just 100 ul of complete medium (background control) 6. 100 ul of MMC at 100 ug/ml was added to the corresponding wells already containing 100 ul of cells in complete medium as a negative control and finally, plates were placed in the incubator. […] Media was removed from the wells by using a multichannel pipette. Wells were washed with 200 ul/well of PBS previously warmed at 37° C. 100 ul of Titron 1× in PBS previously warmed at 37° C. were added to the wells. Subsequently, the plate was placed at 37° C. in the dark for 45 min. 50 ul from each well was transferred to a non sterile 96-well plate. 50 ul of LDH substrate were added to each well of the non sterile plate already containing 50 ul/well of lysed cells and the plates were then incubating at room temperature in the dark for 30 min. 50 ul of Stop solution was added to each well and then the plate was read at 492 nm. 8. After 48 h of cells treatment, one of the 2 plates that had been re-dosed after 24 h was re-dosed again (treatments were prepared as described above for re-dosing). One of the 2 plates that had been treated just once will remain as it was in the incubator. The remaining 2 plates were used to measure the % of survival by LDH after 48 h of single treatment and after re-dosing at 24 h (LDH assay was performed as described above). Day 3: LDH-72 h and LDH-Re-Dosing at 24 h and at 48 h After 72 h of cells treatment, there were just 2 plates left in the incubator. They were used to measure the of survival by LDH after 72 h of single treatment and after re-dosing at 24 h and 48 h (LDH assay was performed as described above).

[1] = compared with arteether and artemether; cited from earlier work
[2] = test system: human pancreatic cancer AsPC-1 cells; settings: cited from earlier work
[3] = test system: ovarian cancer cell lines; settings: cited from earlier work
[4] = test system: human leukemia HL60 cells; settings: cited from earlier work
[5] = test system: human pancreatic cancer BxPC-3 cells; settings: cited from earlier work
metastatic breast cancer = test: Case reports: patients with metastatic breast cancer (CAT scan, symptoms, survival); format: in vivo, human; settings: single patient
Excerpt: A patient comprising a person was diagnosed by their physician with advanced metastatic breast cancer. The metastatic breast cancer consisted of tumors, including several found in both lungs. The physician prescribed a standard set of cancer therapeutics in an attempt to reduce or maintain the tumors. […] The physician placed the patient on a paliative care regime and provided the patient with several doses of the aromatase inhibitor, letrazole. […] The patient was next administered a treatment consisting of artemether at a dose of 40 mg OD, presented in a lipid filled capsule comprising tributyrin and G43.
A patient comprising a person was diagnosed by their physician with extensive metastaic breast cancer. The patient presented with tumors in brain liver and lungs. The patient also presented with symptoms that included shortness of breath and a persistent cough. The patient informed the physician that they would not take part in a standard chemotherapy treatment protocol. The physician informed the patient that they would only live for about three months survival. The patient was instead administered artemether at a dose of 40 mg OD, presented as a lipid filled capsule comprising tributyrin and G43. As a result of the treatment, the symptoms the patient suffered from, including, shortness of breath and a persistent cough diminished over the weeks following treatment with arthemether. […]

[6] = cited from earlier work

Oc1ccc(C=Cc2cc(O)cc(O)c2)cc1 [Resveratrol]
percent of survival of MCF-7 cells, administered more than once (MCF-7 cells): decreasing marginally | effect on percent of survival of MCF-7 cells, dosed singly (MCF-7 cells): only minimal effect

C[C@H]1[C@@H](OCc2ccc(C(=O)O)cc2)O[C@@H]2O[C@@]3(C)CC[C@H]4[C@H](C)CC[C@@H]1[C@@]24OO3 [Artelinic acid]
rate of neurotoxicity [1]: lower rate of neurotoxicity than the related artemisin derivatives arteether and artemether

Oc1ccc([C@H]2COc3cc(O)ccc3C2)cc1 [Equol]
percent of survival of MCF-7 cells, administered more than once (MCF-7 cells): decreasing marginally | effect on percent of survival of MCF-7 cells, dosed singly (MCF-7 cells): only minimal effect

CCCC(=O)[O-].[Na+] [Sodium Butyrate]
survival of MCF-7 cells, therapeutic administered individually (MCF-7 cells): decreased the survival of MCF-7 cells

CO[C@H]1O[C@@H]2O[C@@]3(C)CC[C@H]4[C@H](C)CC[C@@H]([C@H]1C)[C@@]24OO3 [artemether, (+)-(3-alpha,5a-beta,6-beta,8a-beta, 9-alpha,12-beta,12aR)-decahydro-10-methoxy-3,6,9-trimethyl-3,12-epoxy-12H-pyrano(4,3-j)-1,2-benzodioxepin]
cytotoxicity (apoptosis, G2 cell cycle arrest) [2]: dose- and time-dependent cytotoxicity | cytotoxicity (apoptosis, G2 cell cycle arrest) [3]: dose- and time-dependent cytotoxicity | cytotoxicity (apoptosis, G2 cell cycle arrest) [4]: dose- and time-dependent cytotoxicity | cytotoxicity (apoptosis, G2 cell cycle arrest) [5]: dose- and time-dependent cytotoxicity

N#Cc1ccc(C(c2ccc(C#N)cc2)n2cncn2)cc1 [letrazole]
tumor progression (CAT scan) (metastatic breast cancer; after several doses of the aromatase inhibitor on palliative care): progressing | growth of one tumor in a lung (metastatic breast cancer; in three months, after several doses of the aromatase inhibitor): 50%

C[C@H]1[C@H](OC(=O)CCC(=O)O)O[C@@H]2O[C@@]3(C)CC[C@H]4[C@H](C)CC[C@@H]1[C@@]24OO3 [Artesunate]
survival of MCF-7 cells, therapeutic administered individually (MCF-7 cells): decreased the survival of MCF-7 cells

C[C@@H]1CC[C@H]2[C@@H](C)C(=O)O[C@@H]3O[C@@]4(C)CC[C@@H]1[C@]32OO4 [artemisinin]
bioavailability [6]: poor bioavailability

O=c1c(-c2ccc(O)cc2)coc2cc(O)ccc12 [Daidzein]
percent of survival of MCF-7 cells, administered more than once (MCF-7 cells): decreasing marginally | effect on percent of survival of MCF-7 cells, dosed singly (MCF-7 cells): only minimal effect
